Reference: ChEMBL document CHEMBL1130001, “Quantitative structure-activity relationships among macrolide antibacterial agents: in vitro and in vivo potency against Pasteurella multocida” (J Med Chem, 1997)
In brackets after ≈: the same amount, converted by molar mass.

Legend:
Mus musculus = organism: Mus musculus; assay: Protective dose at which 50% of infected, treated mice survive; assay type: functional; details: read-out: PD50
Pasteurella multocida [1] = assay: Minimum inhibitory concentration against Pasteurella multocida.; assay type: functional
[2] = not given; remark: listed apart in the source
[3] = not given; remark: listed apart in the source
physchem [4] = assay: physchem
Description: Dissociation constant (pKa)

Pasteurella multocida [5] = assay type: functional
Description: Log value of the Minimum inhibitory concentration against Pasteurella multocida.

physchem [6] = assay: physchem; remark: listed apart in the source
Description: Dissociation constant (pKa)

physchem [7] = assay: physchem; remark: listed apart in the source
Description: Dissociation constant (pKa)

Pasteurella multocida [8] = assay: Minimum inhibitory concentration against Pasteurella multocida; assay type: functional

| pNF | pCF [2] | Log K [3] | pKa (physchem [4]) | Log 1/MIC (Pasteurella multocida [5]) | pKa (physchem [6]) | pKa (physchem [7]) | SMILES | ED50 (Mus musculus) | MIC (Pasteurella multocida [1]) | MIC (Pasteurella multocida [8]) |
| --- | --- | --- | --- | --- | --- | --- | --- | --- | --- | --- |
| 2.413 | 0.863 | -0.23 | 5.61 | 2.44 | 8.19 | 8.95 | CC[C@H]1OC(=O)CC(O)[C@H](C)[C@@H](O[C@@H]2O[C@H](C)C[C@H](N(C)C)[C@H]2O)[C@@H](CCN(C)CCN(C)C)C[C@@H](C)C(=O)/C=C/C(C)=C/[C@@H]1C (stereo partly specified) | – | – | – |
| 4.138 | 1.938 | -0.12 | 7.81 | 3.27 | 8.78 | 9.6 | CC[C@H]1OC(=O)CC(O)[C@H](C)[C@@H](O[C@@H]2O[C@H](C)C[C@H](N(C)C)[C@H]2O)[C@@H](CCN(CCCN(C)C)C(=O)[C@H](C)N)C[C@@H](C)C(=O)/C=C/C(C)=C/[C@@H]1C (stereo partly specified) | – | – | – |
| 3.481 | 1.161 | 0.43 | 8.53 | 4.12 | 9.72 | – | CC[C@H]1OC(=O)CC(O)[C@H](C)[C@@H](O[C@@H]2O[C@H](C)C[C@H](N(C)C)[C@H]2O)[C@@H](CCNCC(C)(C)CO)C[C@@H](C)C(=O)/C=C/C(C)=C/[C@@H]1C (stereo partly specified) | – | – | – |
| 3.437 | 1.217 | 0.1 | 8.59 | 3.79 | 9.62 | – | CC[C@H]1OC(=O)CC(O)[C@H](C)[C@@H](O[C@@H]2O[C@H](C)C[C@H](N(C)C)[C@H]2O)[C@@H](CCNCCO)C[C@@H](C)C(=O)/C=C/C(C)=C/[C@@H]1C (stereo partly specified) | – | – | – |
| 1.005 | 0.045 | 0.17 | 8.36 | 2.39 | – | – | CC[C@H]1OC(=O)C[C@@H](O)[C@H](C)[C@@H](O[C@@H]2O[C@H](C)[C@@H](O)[C@@H](N(C)C)[C@H]2O)[C@@H](CC=O)C[C@@H](C)C(=O)/C=C/C(C)=C/[C@@H]1CO[C@@H]1O[C@H](C)[C@@H](O)[C@@H](OC)[C@H]1OC | – | – | – |
| 3.067 | 1.307 | -0.16 | 7.03 | 3.27 | 8.53 | 9.16 | CC[C@H]1OC(=O)CC(O)[C@H](C)[C@@H](O[C@@H]2O[C@H](C)C[C@H](N(C)C)[C@H]2O)[C@@H](CCN(C)CCCN(C)C(=O)[C@H](C)N)C[C@@H](C)C(=O)/C=C/C(C)=C/[C@@H]1C (stereo partly specified) | – | – | – |
| 2.391 | 0.891 | 0.02 | 6.81 | 4.15 | 8.13 | 8.9 | CC[C@H]1OC(=O)CC(O)[C@H](C)[C@@H](O[C@@H]2O[C@H](C)C[C@H](N(C)C)[C@H]2O)[C@@H](CCN(C)CCN(C)C(=O)[C@H](C)N)C[C@@H](C)C(=O)/C=C/C(C)=C/[C@@H]1C (stereo partly specified) | – | – | – |
| 3.099 | 1.189 | 0.23 | 8.56 | 3.53 | 9.31 | – | CC[C@H]1OC(=O)CC(O)[C@H](C)[C@@H](O[C@@H]2O[C@H](C)C[C@H](N(C)C)[C@H]2O)[C@@H](CCNC2C(O)CCCC2O)C[C@@H](C)C(=O)/C=C/C(C)=C/[C@@H]1C (stereo partly specified) | – | – | – |
| 1.446 | 0.016 | 0.86 | 8.83 | – | – | – | CCC1OC(=O)CC(O)C(C)C(O[C@@H]2O[C@H](C)C[C@H](N(C)C)[C@H]2O)C(CC=O)CC(C)C(=O)/C=C/C(C)=C/C1C (stereo partly specified) | – | – | – |
| 4.887 | 2.157 | 0.19 | 7.97 | 3.22 | 8.88 | 10.1 | CC[C@H]1OC(=O)CC(O)[C@H](C)[C@@H](O[C@@H]2O[C@H](C)C[C@H](N(C)C)[C@H]2O)[C@@H](CCNCCCN(C)C)C[C@@H](C)C(=O)/C=C/C(C)=C/[C@@H]1C (stereo partly specified) | – | – | – |

Second part, the compound before the results:

| SMILES | pNF | pCF [2] | Log K [3] | pKa (physchem [4]) | Log 1/MIC (Pasteurella multocida [5]) | pKa (physchem [6]) | pKa (physchem [7]) | ED50 (Mus musculus) | MIC (Pasteurella multocida [1]) | MIC (Pasteurella multocida [8]) |
| --- | --- | --- | --- | --- | --- | --- | --- | --- | --- | --- |
| CO[C@@H]1[C@@H](O[C@@H]2O[C@H](C)[C@@H](O[C@H]3C[C@@](C)(O)[C@@H](OC(=O)CC(C)C)[C@H](C)O3)[C@H](N(C)C)[C@H]2O)[C@@H](CC=O)C[C@@H](C)C(=O)/C=C/[C@@H]2O[C@H]2C[C@@H](C)OC(=O)C[C@H]1OC(C)=O [CARBOMYCIN A] | 0.419 | 0.209 | 1.48 | 7.61 | – | – | – | > 150 mg/kg | 1.56 µg/mL (≈ 1.85 µM) | – |
| CC[C@H]1OC(=O)C[C@@H](O)[C@H](C)[C@@H](O[C@@H]2O[C@H](C)C[C@H](N(C)C)[C@H]2O)[C@@H](CC=O)C[C@@H](C)C(=O)/C=C/[C@]2(C)O[C@H]2[C@@H]1C [ROSARAMICIN] | 1.407 | 0.017 | 0.63 | 8.79 | – | – | – | 68 mg/kg | 0.2 µg/mL (≈ 0.344 µM) | – |
| CC[C@H]1OC(=O)C[C@@H](O)[C@H](C)[C@@H](O[C@@H]2O[C@H](C)[C@@H](O[C@H]3C[C@@](C)(O)[C@@H](O)[C@H](C)O3)[C@H](N(C)C)[C@H]2O)[C@@H](CC=O)C[C@@H](C)C(=O)/C=C/C(C)=C/[C@@H]1CO[C@@H]1O[C@H](C)[C@@H](O)[C@@H](OC)[C@H]1OC [TYLOSIN] | 0.497 | 0.167 | 0.68 | 7.73 | – | – | – | 86 mg/kg | 25 µg/mL (≈ 27.3 µM) | – |
| CC[C@H]1OC(=O)C[C@@H](O)[C@H](C)[C@@H](O[C@@H]2O[C@H](C)[C@@H](O)[C@H](N(C)C)[C@H]2O)[C@@H](CCN2C[C@H](C)C[C@H](C)C2)C[C@@H](C)C(=O)/C=C/C(C)=C/[C@@H]1CO[C@@H]1O[C@H](C)[C@@H](O)[C@@H](OC)[C@H]1OC [TILMICOSIN] | 3.007 | 0.847 | 0.26 | 8.18 | – | 9.56 | – | 100 mg/kg | 1.56 µg/mL (≈ 1.79 µM) | – |
| CC[C@H]1OC(=O)[C@H](C)[C@@H](O[C@H]2C[C@@](C)(OC)[C@@H](O)[C@H](C)O2)[C@H](C)[C@@H](O[C@@H]2O[C@H](C)C[C@H](N(C)C)[C@H]2O)[C@](C)(O)C[C@@H](C)CN(C)[C@H](C)[C@@H](O)[C@]1(C)O [AZITHROMYCIN] | 3.41 | 1.36 | 0.38 | – | – | – | – | 16 mg/kg | – | 0.05 µg/mL (≈ 0.0668 µM) |
| CO[C@H]1C[C@H](O[C@H]2[C@H](C)[C@@H](O[C@@H]3O[C@H](C)C[C@H](N(C)C)[C@H]3O)[C@@H](C)CC3(CO3)C(=O)[C@H](C)[C@@H](O)[C@@H](C)[C@@H](C)OC(=O)[C@@H]2C)O[C@@H](C)[C@@H]1O (single isomer, unassigned) [OLEANDOMYCIN] | 1.455 | 0.015 | 0.01 | 8.84 | – | – | – | > 150 mg/kg | 6.25 µg/mL (≈ 9.09 µM) | – |
| CC[C@H]1OC(=O)[C@H](C)[C@@H](O[C@H]2C[C@@](C)(OC)[C@@H](O)[C@H](C)O2)[C@H](C)[C@@H](O[C@@H]2O[C@H](C)C[C@H](N(C)C)[C@H]2O)[C@](C)(OC)C[C@@H](C)C(=O)[C@H](C)[C@@H](O)[C@]1(C)O [CLARITHROMYCIN] | 1.601 | 0.011 | 0.63 | – | – | – | – | 100 mg/kg | 0.39 µg/mL (≈ 0.521 µM) | – |
| CO[C@@H]1[C@@H](O[C@@H]2O[C@H](C)[C@@H](O[C@H]3C[C@@](C)(O)[C@@H](OC(=O)CC(C)C)[C@@H](C)O3)[C@@H](N(C)C)[C@H]2O)[C@@H](CC=O)C[C@@H](C)C(=O)/C=C/C=C/C[C@@H](C)OC(=O)C[C@H]1OC(C)=O | – | – | – | – | – | – | – | > 150 mg/kg | 6.25 µg/mL (≈ 7.57 µM) | – |
| CC[C@H]1OC(=O)[C@H](C)[C@@H](O[C@H]2C[C@@](C)(OC)[C@@H](O)[C@H](C)O2)[C@H](C)[C@@H](O[C@@H]2O[C@H](C)C[C@H](N(C)C)[C@H]2O)[C@](C)(O)C[C@@H](C)C(=O)[C@H](C)[C@@H](O)[C@]1(C)O [ERYTHROMYCIN] | 1.494 | 0.014 | 0.35 | 8.88 | – | – | – | > 150 mg/kg | 0.78 µg/mL (≈ 1.06 µM) | – |
